Test results taken from patent US11179376B2, “Salts of pyrazolo[1,5-a]pyridine derivative and use thereof” (SUNSHINE LAKE PHARMA CO., LTD., priority 2017, dated 2021).
Where a name gives a salt, the structure may show the parent alone. Read-outs that look alike come from different tables or passages of the source.

Assay: Pharmacokinetics test in beagle dogs (capsule by gavage, plasma LC/MS/MS)
Format: in vivo
Experimental: The LC/MS/MS system used in the analysis consists of an Agilent 1200 Series vacuum degasser, binary pump, well-plate autosampler, thermostated column compartment, the Agilent G6430 Triple Quadrupole Mass Spectrometer with an electrosprayionization (ESI) source. Quantitative analysis was carried out using MRM mode. The parameters for MRM transitions are in the Table A.
An Agilent XDB-C18, 2.1×30 mm, 3.5 μM column was used for the analysis. 5 μL of the samples were injected. Analysis condition: The mobile phase was 0.1% formic acid in water (A) and 0.1% formic acid in methanol (B). The flow rate was 0.4 mL/min. And the gradient of Mobile phase was in the Table B.
An ESI source was used on the LC/MS/MS spectrometer. The analysis was done in positive ion mode as appropriate and the MRM transition for each analyte was optimized using standard solution. A Capcell MP-C18 100×4.6 mm I.D., […] column (Phenomenex, Torrance, Calif., USA) was used during the analysis. The mobile phase was 5 mM ammonia acetate, 0.1% MeOH in water (A): 5 mM ammonia acetate, 0.1% MeOH in acetonitrile (B) (70/30, v/v). The flow rate was 0.6 mL/min. Column was maintained at ambient temperature. 20 μL of the samples were injected.
The blood samples (0.3 mL) were drawn at 0.25, 0.5, 1.0, 2.0, 3.0, 4.0, 6.0, 8.0, 12 and 24 hour time points or 0.083, 0.25, 0.5, 1.0, 2.0, 4.0, 6.0, 8.0 and 24 hour time points and centrifuged at 3,000 or 4000 rpm for 2 to 10 min. The plasma solutions were collected, and analyzed by LC/MS/MS as described above. The pharmacokinetic parameters were calculated according to non-compartment model using WinNonlin procedure.

[1] = capsule by gavage, dose 2.5 mg/kg, plasma

SMILES | AUC(0-t) (dog, po, capsule by gavage, dose 2.5 mg/kg, plasma) [ng·h/mL] | Cmax (dog, po, capsule by gavage, dose 2.5 mg/kg, plasma, read-out: Cmax) [ng/mL] | Tmax (dog, po, capsule by gavage, dose 2.5 mg/kg, plasma, read-out: Tmax) [h] | exposure and bioavailability in vivo (Cmax and AUClast much larger than those of compound of formula (I)) | AUClast [1] [ng·h/mL] | Cmax [1] [ng/mL] | Tmax [1] [h]
COc1ncc(-c2ccn3ncc(C#N)c3c2)cc1NS(=O)(=O)c1ccc(F)cc1F [Compound of formula (I), N-(5-(3-cyanopyrazolo[1,5-α]pyridin-5-yl)-2-methoxypyridin-3-yl)-2,4-difluorobenzenesulfonamide] | 1550 | 482 | 1.67 | – | – | – | –
COc1ncc(-c2ccn3ncc(C#N)c3c2)cc1NS(=O)(=O)c1ccc(F)cc1F [N-(5-(3-cyanopyrazolo[1,5-α]pyridin-5-yl)-2-methoxypyridin-3-yl)-2,4-difluorobenzenesulfonamide] | – | – | – | good exposure and bioavailability | 8420 | 3050 | 0.667
COc1ncc(-c2ccn3ncc(C#N)c3c2)cc1NS(=O)(=O)c1ccc(F)cc1F [amorphous form of mono-sodium salt, N-(5-(3-cyanopyrazolo[1,5-α]pyridin-5-yl)-2-methoxypyridin-3-yl)-2,4-difluorobenzenesulfonamide] | – | – | – | – | 7290 | 2180 | 1.33
COc1ncc(-c2ccn3ncc(C#N)c3c2)cc1NS(=O)(=O)c1ccc(F)cc1F [crystalline form A of mono-choline salt, N-(5-(3-cyanopyrazolo[1,5-α]pyridin-5-yl)-2-methoxypyridin-3-yl)-2,4-difluorobenzenesulfonamide] | – | – | – | – | 9130 | 3220 | 1.08
COc1ncc(-c2ccn3ncc(C#N)c3c2)cc1NS(=O)(=O)c1ccc(F)cc1F [crystalline form A of mono-lithium salt, N-(5-(3-cyanopyrazolo[1,5-α]pyridin-5-yl)-2-methoxypyridin-3-yl)-2,4-difluorobenzenesulfonamide] | – | – | – | – | 4290 | 1640 | 1.5
COc1ncc(-c2ccn3ncc(C#N)c3c2)cc1NS(=O)(=O)c1ccc(F)cc1F [crystalline form A of mono-sodium salt, N-(5-(3-cyanopyrazolo[1,5-α]pyridin-5-yl)-2-methoxypyridin-3-yl)-2,4-difluorobenzenesulfonamide] | – | – | – | – | 8730 | 2820 | 2.5
COc1ncc(-c2ccn3ncc(C#N)c3c2)cc1NS(=O)(=O)c1ccc(F)cc1F [crystalline form B of mono-sodium salt, N-(5-(3-cyanopyrazolo[1,5-α]pyridin-5-yl)-2-methoxypyridin-3-yl)-2,4-difluorobenzenesulfonamide] | – | – | – | – | 9370 | 4530 | 0.583
COc1ncc(-c2ccn3ncc(C#N)c3c2)cc1NS(=O)(=O)c1ccc(F)cc1F [crystalline form C of mono-sodium salt, N-(5-(3-cyanopyrazolo[1,5-α]pyridin-5-yl)-2-methoxypyridin-3-yl)-2,4-difluorobenzenesulfonamide] | – | – | – | – | 5700 | 1410 | 2.33
